{"source": "patent US7981939B2", "about": "“Application of 2-bromide-isovanillin for the manufacture of a medicament for anti-cancer or/and radiation/chemotherapy sensitization” (Institute of Radiation Medicine, Academy of Military …, priority 2005, dated 2011)", "key": {"[1]": {"target": "T1, nuclear protein DNA-PKcs serine/threonine protein kinase (Homo sapiens, UniProt P78527)", "T1 construct": "adding nuclear proteins to the solid phase reaction system; endogenous in cells; host or cells: HepG2 human liver cancer cells (nuclear protein extract)", "assay": "DNA-PKcs kinase activity in nuclear protein of treated HepG2 cells", "type": "cell-based", "conditions": "24 hrs", "procedure": "The activity of nuclear protein DNA-PKcs serine/threonine protein kinase in human liver cancer cells HepG2 treated with 0, 10, 20, 40, 100 μmol/L 2-bromo-isovanillin for 24 hrs was determined by using […] DNA dependent protein kinase assay kit (Promega), according to the manufacturer's instructions, and the treatment with 100 μmol/L vanillin for the same period of time served as control. Basically, the assay was carried out by immobilizing the phosphorylation substrate specific to DNA-PKcs, i.e., a peptide derived from p53 protein onto a cellulose membrane, adding nuclear proteins to the solid phase reaction system, isotopically labeling the substrate by phosphorylation using γ-^32P ATP, removing non-specific signals after the isotope labeling, and visualizing the kinase activity upon X-ray film developing."}, "[2]": {"test_system": "ovarian cancer cell line HOC8", "assay": "Clonogenic assay, 6 days of continuous action, HOC8", "type": "cell-based, human", "procedure": "(§1) Human cervical cancer cell line HeLa, human liver cancer cell line HepG2/7221/7402, human ovarian cancer cell line HOC8/A2780, human glioma cell line BT325, lung cancer cell line A549, brain metastatic lung cancer cell line BT72 and normal human hepatic cell line LO2 were all grown in DMEM liquid medium supplemented with 10% newborn calf serum. Human leukemia cell line Jurkat was grown in 1640 medium supplemented with 10% newborn calf serum. The above cell lines were cultured in a CO2 incubator at 5% CO2 at 37° C.\n(§2) By way of example, human cervical cancer cell line HeLa, lung cancer cell line A549, and ovarian cancer cell lines A2780 and HOC8 were used to determine the killing of cancer cells by 2-bromo-isovanillin for 6 days. Specifically, four groups were formed according to the type of the cancer cells. The cancer cells were diluted as appropriate, and were respectively plated into Petri dishes with a diameter of […], the amount of the cells adjusted depending on the concentration of 2-bromo-isovanillin to be added. Once adherence was achieved, each cell type received dosages of 0, 5, 10, 15, 20, 25, 30 and 35 μmol/L in triplicates. After 6 days of continuous action, the medium was replaced by a drug-free DMEM liquid medium. […] Then the cell clones were counted. The experimental data were expressed as the mean of 2-4 experiments and were plotted as a growth curve of cancer cells."}, "[3]": {"test_system": "spindle structure in HepG2 cells", "assay": "Spindle structure by immunofluorescent labeling of tubulin, HepG2", "type": "cell-based, human", "conditions": "HepG2, 40 μmol/L, 24 hrs", "from_the_text": "3. […] The influence of 2-bromo-isovanillin on the spindle structure in HepG2 cells was further studied by means of in situ immunofluorescence hybridization by immunofluorescent labeling of tubulin. […] The cells with impaired spindle function could not undergo normal division, thereby leading to rapid cell death, i.e., mitotic catastrophe."}, "[4]": {"test_system": "human liver cancer cell line 7402", "assay": "G2/M arrest by flow cytometry, 7402", "type": "cell-based", "conditions": "7402, 40 μmol/L, 24 hrs", "procedure": "(§3) By way of example, human liver cancer cell lines HepG2 and 7402, human ovarian cancer cell lines HOC8 and A2780, human glioma cell line BT325, lung cancer cell line A549, brain metastatic lung cancer cell line BT72 and prostate cancer cell line IB-4 were used to investigate the G2/M arresting of solid tumor cells of different tissue origins by 2-bromo-isovanillin as measured by the ratio of cells at G2/M phase. Specifically, the cancer cells were divided into two groups, and were treated with 0 or 40 μmol/L 2-bromo-isovanillin for 24 hours. Then the cells were harvested and analyzed for changes in cell cycle and cell apoptosis by flow cytometry."}, "[5]": {"test_system": "human liver cancer cell line HepG2", "assay": "G2/M arrest and apoptosis by flow cytometry, HepG2", "type": "cell-based", "conditions": "HepG2, 40 μmol/L", "procedure": "as §3\n2. In a separate experiment, the cell cycle profile and apoptosis rate of human liver cancer cell line HepG2 treated with 40 μmol/L 2-bromo-isovanillin for different periods of time (0-50 h) were studied, and the results are shown in FIGS. 7A and 7B (1, 2, 3, 4 respectively represent the apoptosis results for treatment with 40 μmol/L 2-bromo-isovanillin for 0, 8, 16, 24 hrs)."}, "[6]": {"test_system": "HeLa, HepG2/7221/7402, HOC8/A2780, BT325, A549, BT72 and IB-4 cancer cell lines", "assay": "Clonogenic assay, 24 hrs of continuous action, ten cancer cell lines", "type": "cell-based, human", "conditions": "5, 10, 20 and 40 μmol/L", "procedure": "as §1\nBy way of example, human cervical cancer cell line HeLa, human liver cancer cell lines HepG2/7221/7402, human ovarian cancer cell lines HOC8/A2780, human glioma cell line BT325, lung cancer cell line A549, brain metastatic lung cancer cell line BT72 and prostate cancer cell line IB-4 were used to determine the killing of cancer cells by 2-bromo-isovanillin for 24 hrs. Specifically, ten groups were formed according to the type of the cancer cells. The cancer cells were diluted as appropriate, and were respectively plated into Petri dishes with a diameter of […], the amount of the cells adjusted depending on the concentration of 2-bromo-isovanillin to be added. […] Then the cell clones were counted. The experimental data were expressed as the mean of […] and were plotted as a growth curve of cancer cells, as shown in FIG. 3."}, "[7]": {"test_system": "ovarian cancer cell line A2780", "assay": "Clonogenic assay, 6 days of continuous action, A2780", "type": "cell-based, human", "procedure": "as §1, §2"}}, "data": [{"compound": "COc1ccc(C=O)c(Br)c1O", "note": "[2-bromo-isovanillin, 2-bromo-3-hydroxy-4-methoxybenzaldehyde]", "values": [{"measurement": "effect on DNA-PKcs kinase activity", "setting": "[1]; HepG2, 20 μmol/L", "result": "significantly inhibited"}, {"measurement": "inhibitory effect on DNA-PKcs kinase activity", "setting": "[1]; HepG2, 40-100 μmol/L, compared with 20 μmol/L", "result": "more remarkable"}, {"measurement": "survival rate", "setting": "[2]; HOC8, 20 μmol/L", "result": "lower than 10%"}, {"measurement": "proliferation", "setting": "[2]; HOC8, 30 μmol/L", "result": "completely inhibited"}, {"measurement": "M phase cells with multiple centrosomes or destroyed spindle structure", "setting": "[3]", "result": "more than 65%"}, {"measurement": "ratio of cells at mitotic phase", "setting": "[3]", "result": "significantly increased"}, {"measurement": "cell cycle effect", "setting": "[4]", "result": "arrested at G2/M phase"}, {"measurement": "treatment time after which obvious G2/M arrest began to appear", "setting": "[5]", "result": 4, "unit": "h"}, {"measurement": "treatment time of peak G2/M arrest", "setting": "[5]", "result": "8 to 16", "unit": "h"}, {"measurement": "cell cycle effect", "setting": "[5]; 24 hrs", "result": "arrested at G2/M phase"}, {"measurement": "cell apoptosis", "setting": "[5]; after 8 hrs of treatment", "result": "significantly increased"}, {"measurement": "cells at G0/G1 phase", "setting": "[5]; at the time of G2/M arrest", "result": "significantly decreased"}, {"measurement": "effect on the proliferation of all ten cancer cell lines", "setting": "[6]", "result": "significant inhibitory effect"}, {"measurement": "survival rate", "setting": "[7]; A2780, 20 μmol/L", "result": "lower than 10%"}, {"measurement": "proliferation", "setting": "[7]; A2780, 30 μmol/L", "result": "completely inhibited"}]}]}
